One compound from patent US8980325B2, “Compositions and methods for treating digestive disorders” (Revalesio Corporation, priority 2008, dated 2015) can be followed below.

The subject of the assay is glutathione peroxidase. Kind of assay: Hydrogen peroxide tests, glutathione peroxidase reactivity. It counts as biochemical. Particulars: A340 nm, 25 degrees Celsius; low and high concentration. As to the method:
The inventive oxygen-enriched output fluid material was tested for the presence of hydrogen peroxide by testing the reactivity with glutathione peroxidase using a standard assay (Sigma). Briefly, glutathione peroxidase enzyme cocktail was constituted in deionized water and the appropriate buffers. Water samples were tested by adding the enzyme cocktail and inverting. Continuous spectrophotometric rate determination was made at A340 nm, and room temperature (25 degrees Celsius).
Water samples were tested by adding the enzyme cocktail and inverting. Continuous spectrophotometric rate determination was made at A340 nm, and room temperature (25 degrees Celsius).

Consider `OO` [hydrogen peroxide], for which the “reactivity with glutathione peroxidase” value was “strong reactivity”.
